Measured values taken from patent US20260345582A1, “PRODRUG FOR ANTI-AGING RELATED DISEASES AND USE METHOD THEREOF” (Beijing SunCell Bio-Medical Co., Ltd., priority 2022, published 2026).

Experiments:
[1] = tested on: A549 cells (human non-small cell lung cancer cell), induced senescent with Cisplatin; experiment: in vitro killing of induced senescent A549 cells (CCK-8); assay type: cell-based
From the text: A. The killing results of some selected compounds in the in vitro compound library screening on the induced senescent A549 cell model. Wherein, MZ-1, dBET6, ARV-825, I-BET726, I-BET151, and INCB057643 are all BET inhibitors; A1331852 and A1155463 are novel Bcl-xL inhibitors; Dasatinib, Quercetin, Fisetin, Curcumin are the familiar active drugs or natural products.
B. Comparison of the killing effects of three Bcl-xL inhibitors on the induced senescent A549 cell model. A549 represents the normal uninduced A549 cell group; and A549-CDDP represents the senescent A549 cell group induced with Cisplatin (CDDP) in vitro.
(§1) Induction of the Cellular Senescence

[2] = tested on: platelets in peripheral blood; experiment: in vivo platelet toxicity test, multiple intraperitoneal injections; parameters: species or system C57 mice
Experimental: B. The schematic diagram of the multiple dosing and the subsequent blood routine examinations in mice. The drug was administered on 3 consecutive days per week, followed by a 4-day interval, for 3 weeks continuous administration. The drug was administered by intraperitoneal injection in the afternoon on days 0, 1, 2, 7, 8, 9, 14, 15, and 16, and the blood was collected and tested in the morning on days 1, 3, 5, 8, 10, 12, 15, 17, and 19, respectively.
C. Results of the platelet counts in peripheral blood on days 1, 3, 5, 8, 10, 12, 15, 17, and 19 after multiple intraperitoneal injections of different doses of the given drug. Each dot in the panel represents the count of platelets detected in 1 mouse at that time point (n=4 mice); mpk represents the milligram dose per kilogram of the body weight, A13 represents the parent compound A1331852 administration group, and A13bGa1 represents the prodrug obtained after the β-gal modification of A13. The dashed line in the panel indicates the mean value of platelet counts in mice in the single vehicle administration control group.
In Vivo Platelet Toxicity Test
A single administration of A13 or A13bG was performed. Female 5-6 week old C57 mice were treated with a single intraperitoneal injection. A13 and A13bG were administered in three different dose groups of 2, 5, and 20 mg/kg. Approximately 50 μl of blood was collected from each mouse at different time points into the EDTA tubes (RAM Scientific) by means of inner canthal blood extraction, and analyzed using a haematology analyzer for a blood routine examination and a platelet counting. Multiple administrations of A13 or A13bG were performed. Female 5-6 week old C57 mice were treated with multiple intraperitoneal injections. A13 and A13bG were administered in three different dose groups of 2, 5 and 20 mg/kg, three consecutive days per week, followed by a 4-day withdrawal for 3 weeks. The time points of administration were in the afternoon of days 0, 1, 2, 7, 8, 9, 14, 15, and 16, and the time points of blood collection and testing were in the morning of days 1, 3, 5, 8, 10, 12, 15, 17, and 19, respectively.
For a blood routine examination, 50 μl of fresh blood was collected from each mouse and immediately mixed with EDTA. Blood samples were analyzed by Celltac Alpha MEK-6400 series haematology analyzer (Nihon Kohden, MEK-6400). Data were expressed as the number of different blood cells or platelets per μl of blood. For the serum biochemical analysis, the blood samples were collected, coagulated for 2 hours at room temperature or overnight at 4 °C, and then centrifuged (1000 g, 10 minutes) to obtain serum. A 200 μl of serum was aliquoted and analyzed for alanine aminotransferase (ALT), aspartate aminotransferase (AST), uric acid (UA), and creatinine (CREA) by a chemistry analyzer (Mindray, BS-350E).

[3] = plasma metabolic stability, monkey; assay type: in vitro ADME; settings: 120 min
Experimental: Plasma Metabolic Stability
Termination of the reaction was accomplished by the addition of 3× volume of acetonitrile and centrifugation at 16000 g for 20 minutes. The supernatant was taken for a LC-MS/MS analysis. The chromatographic column: Waters XSelect HSS T3; the flow rate: 500 μL/min; the eluent: A, water (0.1% formic acid); B, acetonitrile (0.1% formic acid); the gradient elution: 0-1.5 min, 5% B, 1.5-9 min, 5%-80% B, 9-12 min, 80%-100% B, 12-14 min, 100% B, 14-14.3 min, 100%-5% B, 14.3-15 min, 5% B.

[4] = liver microsomal metabolic stability, rat
Experimental: (§2) Hepatic Microsomal Metabolic Stability
(§3) A13bGa1 was co-incubated with the mouse, rat, canine, monkey and human […] and the incubation medium at a final drug concentration of 1 μM in the incubation system for 60 minutes. Samples were taken and analyzed at time points 0, 15, 30, 45 and 60 minutes during the incubation. The reaction was terminated by adding an amount of acetonitrile solution containing the internal standard. […] The residual percentage, half-life, intrinsic clearance, amplified clearance, hepatic clearance and hepatic extraction ratio were determined. The entire experiment was performed in triplicate. All data calculations were performed by Microsoft Excel software. Peak areas were detected by extracting the ionic spectrum. The in vitro half-life (t1/2) of the parent compound was detected by fitting the natural logarithm of the percentage elimination of the parent compound linearly to time.
(§4) The in vitro intrinsic clearance (in μL/min/mg protein) was calculated using the following equation: in vitro CLint=kV/N
(§5) The amplified clearance (in mL/min/kg) was calculated using the following equation: Amplified CLint=kV/N×the amplification factor
(§6) The hepatic clearance (in mL/min/kg) was calculated using the following equation: The predicted hepatic CLH=(Q×Fu/RB×the amplified CLint)/(Q+Fu/RB×the amplified CLint) • V=the incubation volume per well (0.2 mL); • N=the total amount of protein (mg) • Q=the hepatic blood flow (mL/min/kg) • Fu=the plasma free rate (assumed to be 1) • RB=the whole blood partition coefficient (assumed to be 1)
(§7) The hepatic uptake rate was calculated using the following equation:
(§8) The hepatic extraction ratio (ER)=(the predicted hepatic CLH)/Q

[5] = liver microsomal metabolic stability, mouse
Experimental: as §2, §3, §4, §5, §6, §7, §8

[6] = tested on: MRC5 cells (human embryonic lung fibroblast cell line); experiment: in vitro killing of induced senescent MRC5 cells (CCK-8); assay type: cell-based; settings: lung-derived, FIG. 3G
From the text: as §1

[7] = tested on: senescent cells (HEF, HELF, A549, MRC5, BJ, HUVEC); experiment: in vitro killing of senescent cells, multiple cell models (CCK-8); assay type: cell-based, human; settings: FIG. 3B-3G
From the text: as §1

Compound: Cc1c(-c2ccc(N3CCc4cccc(C(=O)Nc5nc6ccccc6s5)c4C3)nc2C(=O)O)cnn1CC12CC3CC(CC(C3)C1)C2 [Compound A13, 3-[1-(adamantan-1-ylmethyl)-5-methylpyrazol-4-yl]-6-{8-[(1,3-benzothiazol-2-yl)carbamoyl]-3,4-dihydro-1H-isoquinolin-2-yl}pyridine-2-carboxylic acid]
- selective killing effect on the senescent cells ([1]; A549-CDDP vs A549, FIG. 1B): selective killing effect on the senescent cells
- senescent cell killing activity and selectivity, compound screening ([1]; induced senescent A549 cell model, FIG. 1A): good senescent cell killing activity and selectivity in vitro
- toxic effects on the platelets at the lowest dose ([2]; multiple rounds i.p., 2 mg/kg, 3 consecutive days per week, 3 weeks, FIG. 4C): very serious toxic effects on the platelets
- destructive effects on the platelets at the three doses tested ([2]; multiple rounds i.p., 2, 5, 20 mg/kg, FIG. 4C): strong destructive effects on the platelets
- number of the peripheral blood platelets during monitoring ([2]; multiple rounds i.p., FIG. 4C): dramatic fluctuations in the number of the peripheral blood platelets

Compound: Cc1c(-c2ccc(N3CCc4cccc(C(=O)Nc5nc6ccccc6s5)c4C3)nc2C(=O)OCc2ccc(O[C@@H]3O[C@H](CO)[C@H](O)[C@H](O)[C@H]3O)c([N+](=O)[O-])c2)cnn1CC12CC3CC(CC(C3)C1)C2 [Compound A13bGa1]
- killing of the senescent cells, efficiency and selectivity ([1]; A549 cells, lung-derived, FIG. 3E): highly efficient and selective in killing the senescent cells
- metabolised at 2 h, 10 µM ([3]; 10 μM prodrug, read-out: The peak area after normalisation at minute 120, oxidative dehydrogenation metabolite): 0.04%
- remaining at 2 h, 10 µM ([3]; 10 μM, read-out: The peak area after normalisation at minute 120, initial drug): 100%
- The hepatic extraction ratio (E) [4]: 0.34
- The intrinsic clearance in vitro Clint ([4]; 1 μM, 60 min): 15.81 μL/min/mg protein
- The predicted intrinsic hepatic clearance Clint ([4]; Fu and RB assumed to be 1): 18.72 mL/min/kg
- CLint scaled at 1 µM ([4]; microsomes): 28.3 mL/min/kg
- half-life at 1 h, 1 µM ([4]; microsomes): 1.46 h
- The hepatic extraction ratio (E) [5]: 0.40
- The intrinsic clearance in vitro Clint ([5]; 1 μM, 60 min): 13.79 μL/min/mg protein
- The predicted intrinsic hepatic clearance Clint ([5]; Fu and RB assumed to be 1): 36.24 mL/min/kg
- CLint scaled at 1 µM ([5]; microsomes): 60.7 mL/min/kg
- half-life at 1 h, 1 µM ([5]; microsomes): 1.68 h
- killing of the senescent cells, efficiency and selectivity [6]: highly efficient and selective in killing the senescent cells
- overall killing activity on the senescent cells compared with the parent compound A13 [7]: somewhat reduced compared with that of the parent compound A13
- changes in the number of the peripheral blood platelets ([2]; multi-round i.p. regimen, FIG. 4C): relatively stable
- toxic side effects on the platelets ([2]; multi-round i.p. regimen, in contrast to A13, FIG. 4C): significantly reduced
